Consider twelve compounds from patent publication US20240228448A1 (Washington University, priority 2021, published 2024).

The structures appear in SMILES notation. Values joined by “and” are separate entries in the source; they are usually repeats but may differ in a detail not shown here. Identical values can stand only once. Like-named read-outs stand apart in the source and are kept apart here. Where only a bound is given, the exact number is not on record here.

One data set addresses T1, S1P4 (Homo sapiens, UniProt O95977).
T1 sequence (O95977 1-384): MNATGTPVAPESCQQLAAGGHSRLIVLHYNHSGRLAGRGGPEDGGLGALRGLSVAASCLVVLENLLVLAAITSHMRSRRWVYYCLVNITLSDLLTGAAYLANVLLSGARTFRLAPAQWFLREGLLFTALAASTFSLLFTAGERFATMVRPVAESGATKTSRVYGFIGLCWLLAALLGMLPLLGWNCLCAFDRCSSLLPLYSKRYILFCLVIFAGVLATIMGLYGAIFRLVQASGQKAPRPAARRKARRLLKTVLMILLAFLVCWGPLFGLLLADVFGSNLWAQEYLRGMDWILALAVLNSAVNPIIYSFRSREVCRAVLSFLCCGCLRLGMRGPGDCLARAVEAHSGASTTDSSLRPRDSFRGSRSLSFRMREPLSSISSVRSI
The experiment in a line: competitive S1Ps cell membrane binding assay against [32P]S1P, S1P4.

The test system of the next data set is S1P2-5. Briefly: competitive S1Ps cell membrane binding assay against [32P]S1P, S1P2-5 reported together. As to conditions: for selectivity over S1P2-5: in words.
A further data set deals with S1P3 (Homo sapiens, UniProt Q99500). The experiment in a line: competitive S1Ps cell membrane binding assay against [32P]S1P, S1P3. Conditions: Table 6.
The target of another data set is S1P2 (Homo sapiens, UniProt O95136). The experiment in a line: competitive S1Ps cell membrane binding assay against [32P]S1P, S1P2. As to conditions: Table 6.
The target of data set [1] is S1P1 (Homo sapiens, UniProt P21453). The experiment in a line: competitive S1Ps cell membrane binding assay against [32P]S1P, S1P1.
Excerpt: (§2) One way to measure affinity is use of a general competition binding assay.
The target of the next data set is S1P5 (Homo sapiens, UniProt Q9H228). Briefly: competitive S1Ps cell membrane binding assay against [32P]S1P, S1P5.
The nature of data set [2]: Human biodistribution / dosimetry PET study of [11C]CS1P1. Format: in vivo. The protocol: One human (88 kg, SIEMENS, patient ID: 1179101) was imaged with a dose of 7.2 mCi (FIG. 10A). Good uptake was found in the brain (FIG. 10B). Residence time and total absorbed dose in individual organs was also measured (FIG. 10C and Table 4).
Data set [3] can be described thus: MicroPET brain study in cynomolgus macaque. Conditions: for brain uptake in nonhuman primates: MicroPET, in words.
Procedure: Using a Focus 220 microPET scanner to collect dynamic scans for 2 hours after intravenous injection of ˜0.35 GBq dose into male macaques. Radiometabolites were measured from arterial blood samples collected at 5, 15, 30, and 60 min post-injection of radiotracer. The HPLC eluent was collected, and fractions were counted in a gamma counter.
Male macaques (˜10 kg) were used for PET imaging data acquisition with a microPET Focus 220 scanner (Siemens Inc., Knoxville, TN). Animals were anesthetized using ketamine and glycopyrrolate and maintained with inhalation of isoflurane. Core temperature was kept at 37° C. with a heated water blanket. The head was secured in a customized head holder. […] Emission data were corrected for dead time, scatter, and attenuation and then reconstructed. […] Predefined brain regions of interest from the template were applied to the co-registered PET image to obtain regional time-activity curves. The measurement of the brain uptake of radiotracer was standardized to body weight and the dose of radioactivity injected to yield a standardized uptake value (SUV).
The brain uptakes of these tracers were measured by Focus 220 microPET scanner to collect dynamic scans for 2 hours after intravenous injection of ˜0.35 GBq dose into male cynomolgus macaques (8-9 kg).
For data set [4], the target named is T2, S1P1 (Mus musculus, UniProt O08530).
T2 construct: from tissue; host or cells: living mice (whole body, brain, tissues)
Briefly: PET with [18F]TZ4877 in S. aureus infected mice. Format: in vivo. Conditions: microPET, in words. The protocol:
Mice were euthanized at 30 min, and S. aureus was injected 24 hours prior to radiotracer injection. […] IHC staining was used for confirmation in infected versus sham controls (FIG. 12E). Increasing signals of the inflammation related cytokines and chemokines were detected in liver.

Data set [5] is described as follows: HPLC radiometabolite analysis of nonhuman primate plasma, [18F]TZ82112. Format: in vivo. Conditions: NHP plasma compared with rat plasma, in words. The source says:
(§1) Considering the high NHP brain uptake and clinically favorable pharmacokinetics compared to other F-18 S1PR1 radiotracers such as [^18F]FCS1P1 and [^18F]4877, we believe [^18F]TZ82112 is worth to transfer into clinical evaluation to confirm [18F]TZ82112 is the best S1PR1 radiotracer for clinical assessment of the neuroinflammation status by measurement of the S1PR1 receptor expression level. On the other side, as a S1PR1 radiotracer, [^18F]TZ82112 has its limitation for preclinical investigation because it quickly metabolites to form a lipophilic radiometabolite which will increase noise signal for PET measurement of S1PR1 expression in inflamed tissues.

Data set [6] in a line: Ex-vivo rat biodistribution and EAE rat PET studies of [18F]TZ82112. As to conditions: in words.
Data set [7] can be described thus: HPLC radiometabolite analysis of rat plasma and rat brain, [18F]TZ82112. As to conditions: in words. Format: in vivo.
Excerpt: as §1

The next data set has as its system S1PR1. Briefly: NHP PET brain imaging blocking studies. Format: in vivo, nonhuman primate. As to conditions: NHP PET self-blocking, in words.
Where [8] appears, read: Table 7, read-out: IC50 (nM) S1P2-5.
[9] abbreviates: Table 6, read-out: IC50 for S1P4.
Setting [10] is: read-out: IC50 (nM) S1P1, Table 7.
Setting [11] is: Table 5, read-out: IC50 (nM) S1P5.
Setting [12] is: Table 6, read-out: IC50 for S1P5.

Sequence of S1P3 (Q99500 whole entry, species assumed): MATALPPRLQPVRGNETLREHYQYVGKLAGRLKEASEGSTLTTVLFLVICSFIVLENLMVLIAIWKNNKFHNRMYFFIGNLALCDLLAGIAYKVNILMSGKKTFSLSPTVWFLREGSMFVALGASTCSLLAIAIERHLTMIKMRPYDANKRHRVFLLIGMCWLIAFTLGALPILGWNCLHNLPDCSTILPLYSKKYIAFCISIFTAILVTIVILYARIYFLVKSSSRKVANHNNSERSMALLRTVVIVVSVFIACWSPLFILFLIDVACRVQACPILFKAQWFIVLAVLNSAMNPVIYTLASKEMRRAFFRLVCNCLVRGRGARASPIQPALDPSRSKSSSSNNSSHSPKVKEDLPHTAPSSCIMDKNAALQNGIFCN
Sequence of S1P5 (Q9H228 whole entry, species assumed): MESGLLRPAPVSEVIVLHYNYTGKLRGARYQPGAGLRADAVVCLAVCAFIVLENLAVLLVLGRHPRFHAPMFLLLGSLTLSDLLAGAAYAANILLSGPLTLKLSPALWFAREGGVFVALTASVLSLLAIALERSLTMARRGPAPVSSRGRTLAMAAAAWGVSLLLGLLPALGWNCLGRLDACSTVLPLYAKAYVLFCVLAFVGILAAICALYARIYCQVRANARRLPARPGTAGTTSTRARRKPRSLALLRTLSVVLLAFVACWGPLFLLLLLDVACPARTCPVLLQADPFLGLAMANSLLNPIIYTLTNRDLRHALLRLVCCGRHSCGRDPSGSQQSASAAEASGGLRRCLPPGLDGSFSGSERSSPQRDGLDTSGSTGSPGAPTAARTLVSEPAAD
Sequence of S1P1 (Homo sapiens, UniProt P21453) (P21453 whole entry, species assumed): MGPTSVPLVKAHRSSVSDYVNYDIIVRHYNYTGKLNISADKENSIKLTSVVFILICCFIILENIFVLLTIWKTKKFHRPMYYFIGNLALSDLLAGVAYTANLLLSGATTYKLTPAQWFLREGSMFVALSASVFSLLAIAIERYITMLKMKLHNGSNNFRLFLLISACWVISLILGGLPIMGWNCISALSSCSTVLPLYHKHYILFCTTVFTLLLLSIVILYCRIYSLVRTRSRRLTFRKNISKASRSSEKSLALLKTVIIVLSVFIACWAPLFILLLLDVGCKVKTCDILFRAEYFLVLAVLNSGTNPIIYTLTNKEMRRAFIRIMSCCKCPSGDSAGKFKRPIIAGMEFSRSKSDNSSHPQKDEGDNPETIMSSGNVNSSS
Sequence of S1P2 (O95136 whole entry, species assumed): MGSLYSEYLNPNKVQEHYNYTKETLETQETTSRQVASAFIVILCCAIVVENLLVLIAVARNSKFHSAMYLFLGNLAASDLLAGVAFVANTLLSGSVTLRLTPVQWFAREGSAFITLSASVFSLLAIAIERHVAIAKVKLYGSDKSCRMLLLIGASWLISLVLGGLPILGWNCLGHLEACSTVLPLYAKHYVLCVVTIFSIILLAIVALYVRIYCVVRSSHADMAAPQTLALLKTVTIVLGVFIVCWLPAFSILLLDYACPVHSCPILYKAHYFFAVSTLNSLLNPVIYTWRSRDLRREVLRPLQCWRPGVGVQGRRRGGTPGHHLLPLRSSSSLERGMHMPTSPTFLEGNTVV
T2 sequence (O08530 whole entry): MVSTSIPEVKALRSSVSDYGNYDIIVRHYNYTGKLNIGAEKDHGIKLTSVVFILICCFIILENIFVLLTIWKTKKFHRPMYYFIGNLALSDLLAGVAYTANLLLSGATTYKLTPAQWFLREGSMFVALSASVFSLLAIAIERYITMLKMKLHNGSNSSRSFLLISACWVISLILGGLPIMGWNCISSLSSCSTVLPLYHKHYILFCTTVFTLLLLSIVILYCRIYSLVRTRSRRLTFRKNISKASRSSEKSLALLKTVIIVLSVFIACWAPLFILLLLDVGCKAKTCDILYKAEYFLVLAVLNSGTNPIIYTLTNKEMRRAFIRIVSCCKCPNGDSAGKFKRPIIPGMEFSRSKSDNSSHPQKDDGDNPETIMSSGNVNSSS
Excerpt for S1P2-5: as §2
Excerpt for S1P5: as §2

Broadly, the IC50 is the concentration needed to halve the response being measured. For `Cc1ccccc1-c1ccc(-c2nc(-c3ccc(CN(C)CCC(=O)O)c(F)c3)no2)cc1C(F)(F)F` [TZ33-21], the IC50 at S1P4 (Table 5, read-out: IC50 (nM) S1P4) is > 1000 nM; in the data set with S1P2-5 (setting [8]), > 1000 nM; in the data set on S1P2-5 (read-out: IC50 for S1P2-5), > 1000 nM.
With `CN(CCC(=O)O)Cc1ccc(-c2noc(-c3ccc(OCCF)c(C(F)(F)F)c3)n2)cc1F` [TZ82-24], the half-maximal inhibitory concentration (IC50) on S1P4 (setting [9]), on S1P3 and at S1P2 was > 1000 nM in each case.
For `Cc1ccccc1-c1ccc(-c2nc(-c3ccc(CN(C)CC(=O)O)c(F)c3)no2)cc1C(F)(F)F` [TZ82-47], the IC50 is > 1000 nM on S1P4 (setting [9]); > 1000 nM in the data set with S1P2-5 (setting [8]); < 20 nM on S1P1 [1] (IC50 for S1P1, running text); 7.6 ± 0.2 nM on S1P1 [1] (setting [10]); 77.3 nM at S1P5 (setting [11]); > 1000 nM at S1P2. The “selectivity over S1P2-5” value in the data set on S1P2-5 is recorded as “good selectivity”. Besides, the “IC50 for S1P3 (nM)” value on S1P3 is reported as “Not fit”. Moreover, at S1P1 [1] (Table 6, single determinations), the “IC50 for S1P1 (nM)” value is listed as “Not detected”. Moreover, at S1P5 (Table 6), the “IC50 for S1P5 (nM)” value was “Not fit”.
In the case of `Cc1ccccc1-c1ccc(-c2nc(-c3ccc(CN(C)CCCC(=O)O)c(F)c3)no2)cc1C(F)(F)F` [TZ82-48], the IC50 at S1P4 (setting [9]) was > 1000 nM; in the data set with S1P2-5 (setting [8]), > 1000 nM; at S1P3, 189 nM; on S1P1 [1] (IC50 for S1P1, running text), < 20 nM; at S1P1 [1] (setting [10]), 0.8 ± 0.2 nM; at S1P5 (setting [11]) it was 23.1 nM. In addition, the results for the IC50 at S1P5 (setting [12]) and at S1P2 were 194 nM and > 1000 nM, respectively. Moreover, in the data set on S1P2-5, the “selectivity over S1P2-5” value was “good selectivity”. At S1P1 [1] (Table 6, single determinations), the “IC50 for S1P1 (nM)” value is listed as “Not detected”.
In the case of `Cc1ccccc1-c1ccc(-c2nc(-c3ccc(CN(C)CCO)c(F)c3)no2)cc1C(F)(F)F` [TZ82-51], the IC50 on S1P4 (setting [9]) is > 1000 nM; at S1P3, 454 nM; on S1P2, > 1000 nM.
In the case of `Cc1ccccc1-c1ccc(-c2nc(-c3ccc(CN(C)CCCO)c(F)c3)no2)cc1C(F)(F)F` [TZ82-52], the IC50 at S1P4 (setting [9]) was > 1000 nM; at S1P3, 418 nM; at S1P2, > 1000 nM.
In the case of `CN(CCCO)Cc1ccc(-c2noc(-c3ccc(OCCF)c(C(F)(F)F)c3)n2)cc1F` [TZ82-112], the IC50 on S1P4 (setting [9]) was > 1000 nM; at S1P3 it was 746 nM; at S1P1 [1] (IC50 (nM) S1P1, Table 5), 15.8 nM; at S1P1 [1] (IC50 for S1P1 (nM), Table 6, single determinations), 15.8 nM and 2.03 nM and 8.17 nM; on S1P5 (setting [11]) it was 234 nM; at S1P5 (setting [12]) it was > 1000 nM. Besides, the IC50 at S1P2 was > 1000 nM.
As for `Cc1ccccc1-c1ccc(-c2nc(-c3ccc(CN([11CH3])CCC(=O)O)c(F)c3)no2)cc1C(F)(F)F` [[^11C]CS1P1], the total absorbed dose in data set [2] (Brain, human) is listed as 1.02 ± 0.1 μGy/MBq; in data set [2] (Gall bladder, human) it was 4.82 ± 0.19 μGy/MBq; in [2] (Heart wall, human) it was 2.06 ± 0.13 μGy/MBq; in data set [2] (Kidneys, human), 4.66 ± 0.22 μGy/MBq; in data set [2] (Liver, human), 9.88 ± 0.03 μGy/MBq; in data set [2] (Lung, human), 2.13 ± 0.56 μGy/MBq. In addition, the total absorbed dose in data set [2] (Pancreas, human) was determined as 2.22 ± 0.07 μGy/MBq; in [2] (Spleen, human), 3.09 ± 0.35 μGy/MBq; in data set [2] (Urinary bladder, human), 0.48 ± 0.32 μGy/MBq. The “total human effective dose” value in [2] (administration of 10 mCi (370 MBq)) is recorded as < 0.6 mSv. In [2] (human), the “Effective does (μSv/MBq)” value was 1.60 ± 0.15 μSv/MBq. In data set [2] (human, in words), the “safety of imaging for clinical PET studies” value is “safe”. Moreover, the “brain uptake, maximum SUV value” in data set [3] (macaque brain, from 20 to 120 min post-injection) is reported as ~2.3.
With `OCCOCc1ccc(-c2noc(-c3ccc(OCC[18F])c(C(F)(F)F)c3)n2)cc1` [[^18F]TZ4877], in the data set with S1P2-5 (read-out: IC50 for S1P2-5), the IC50 is > 1000 nM. In addition, the “brain uptake, infected versus sham mice” value at S1P1 [4] is given as “higher uptake in infected mice”.
Consider `Cc1ccccc1-c1ccc(-c2nc(-c3ccc(CN(C)CC(=O)O)c([18F])c3)no2)cc1C(F)(F)F` [[^18F]TZ8247], for which, in data set [3], the “brain uptake in nonhuman primates” value is “high brain uptake”.
For the compound `Cc1ccccc1-c1ccc(-c2nc(-c3ccc(CN(C)CCCC(=O)O)c([18F])c3)no2)cc1C(F)(F)F` [[^18F]TZ8248], the “brain uptake in nonhuman primates” value in data set [3] is “high brain uptake”. Further, the “brain uptake, standard uptake value (SUV)” value in data set [3] (macaque brain, 120 min post-injection) is recorded as ~2.8.
On to `CN(CCCO)Cc1ccc(-c2noc(-c3ccc(OCC[18F])c(C(F)(F)F)c3)n2)cc1F` [[^18F]TZ82112], for which, in [5], the “percentage of the same radiometabolite in plasma” value is listed as “much lower”. Further, in data set [6] (EAE rat model of MS, PET), the “spinal cord uptake compared to the normal controls” value is “increased spinal cord uptake”. Further, the “brain uptake and washout” value in [6] (ex-vivo rat biodistribution) was “high initial brain uptake and good brain washout kinetics”. Moreover, the “radiometabolite in brain tissue” value in [7] (rat brain tissue samples) is given as “no radioactive metabolite”. Moreover, in data set [7] (rat plasma), the radiometabolite in plasma entry is “quickly generated a high percentage of a radiometabolite”. Also, in the data set with S1PR1, the “brain uptake after pretreatment with cold TZ82112” value was “reduce the its brain uptake”.
